Values of other authors as cited in patent US6703034B2, “Neem oil microemulsion without cosurfactants or alcohols and a process to form the same” (University of Florida, priority 2000, dated 2004).

Columns and labels:
certain insects = conditions: quantities as low as
Insects = conditions: treated during larval and pupal stages

C/C=C(\C)C(=O)O[C@H]1C[C@@H](OC(C)=O)[C@@]2(C(=O)OC)CO[C@H]3[C@@H](O)[C@@](C)([C@]45O[C@@]4(C)[C@H]4C[C@@H]5O[C@@H]5OC=C[C@@]54O)[C@H]4[C@]1(CO[C@]4(O)C(=O)OC)[C@@H]32 [azadirachtin]
quantity at which potent (repels certain insects) (certain insects): 1 ppm
time to death of treated insects (Insects): 3 to 14 days
